Publication PMC13070491, “Single-nucleus transcriptomics, pharmacokinetics, and pharmacodynamics of CDK4/6 and mTOR inhibition in a Phase 0/1 trial of recurrent high-grade glioma” (Neuro-Oncology, 2025)

System: GB126, GB239 and GB86 patient-derived cell lines
Assay: In vitro single-cell RNA sequencing, analyses across the cell lines (pseudobulk differential gene expression, GSEA, non-cycling cells)
Assay type: cell-based, human
Details: pseudobulk, ribociclib versus control (DMSO)
Description: Patient-derived glioma stem cell lines (GSCs; GB126, GB86, and GB239) were established from resected GBM tumor tissue. Cell lines were genetically profiled for mutations and copy number aberrations using the IvySeq custom gene panel. […] GB239 was derived from a tumor sample included in this Phase 0 trial (tumor sample: 100-0039). All human GSCs were cultured as described previously.[12]
Following the fifth day of drug exposure, cells were harvested, cryopreserved to be processed at a later point, or immediately processed for single-cell RNA sequencing (10x Genomics, 3’ version 3). The single-cell RNA sequencing data were then processed via cellranger count and Seurat. Briefly, cells were filtered out based on the following criteria: minimum number of genes detected >500 and <10 000 with a maximum percentage of mitochondrial genes set to 10%. Statistical assessment was made between the malignant proportions of each cell state using a 2-sided paired t-test.
Descriptive statistics of the clinical data are included in Table 1. Comparisons between groups were conducted using a 2-sided or paired 2-sided t-test, where indicated. P < .05 was considered significant. Multiple hypothesis test corrections (ie, false discovery rate correction) were applied for snRNAseq pseudobulk differential expression analysis.

Compound: CN(C)C(=O)c1cc2cnc(Nc3ccc(N4CCNCC4)cn3)nc2n1C1CCCC1 [ribo]
- log2FoldChange CYSLTR2 (gene CYSLTR2): 1.514
- log2FoldChange CYYR1-AS1 (gene CYYR1-AS1): 1.511
- log2FoldChange DDO (gene DDO): 1.495
- log2FoldChange (gene DEPDC1B): -1.796
- log2FoldChange (gene DERL3): -1.095
- log2FoldChange (gene DHFR): -1.766
- log2FoldChange (gene DIAPH3-AS2): -1.671
- log2FoldChange (gene DNA2): -1.693
- log2FoldChange DSCR8 (gene DSCR8): 1.633
- log2FoldChange (gene DTL): -1.106
- log2FoldChange (gene ECT2): -1.057
- log2FoldChange FAM71F1 (gene FAM71F1): 1.476
- log2FoldChange (gene FAM72D): -1.625
- log2FoldChange FAM189A2 (gene FAM189A2): 1.685
- log2FoldChange (gene FANCG): -1.109
- log2FoldChange (gene FBLN1): -1.678
- log2FoldChange (gene FEN1): -1.753
- log2FoldChange (gene FGFR3): -1.106
- log2FoldChange FSHR (gene FSHR): 1.906
- log2FoldChange GBP6 (gene GBP6): 1.725
- log2FoldChange GDF3 (gene GDF3): 1.697
- log2FoldChange (gene GINS2): -1.846
- log2FoldChange (gene GLI1): -1.086
- log2FoldChange (gene GMNN): -1.627
- log2FoldChange HABP2 (gene HABP2): 1.889
- log2FoldChange (gene HAUS8): -1.09
- log2FoldChange HEPH (gene HEPH): 1.499
- log2FoldChange HGFAC (gene HGFAC): 1.4467
- log2FoldChange (gene HIRIP3): -1.608
- log2FoldChange (gene HIST1H1C): -1.863
- log2FoldChange (gene HIST1H3H): -1.783
- log2FoldChange HKDC1 (gene HKDC1): 1.5426
- log2FoldChange (gene IL1A): -1.056
- log2FoldChange (gene IL2RB): -1.0626
- log2FoldChange (gene INCENP): -1.833
- log2FoldChange ITIH6 (gene ITIH6): 1.766
- log2FoldChange (gene KCNAB3): -1.628
- log2FoldChange KISS1 (gene KISS1): 2.005
- log2FoldChange (gene KNTC1): -1.6836
- log2FoldChange LINC00239 (gene LINC00239): 1.81
- log2FoldChange LINC00587 (gene LINC00587): 1.439
- log2FoldChange LINC00601 (gene LINC00601): 1.889
- log2FoldChange LINC00645 (gene LINC00645): 1.665
- log2FoldChange LINC00844 (gene LINC00844): 1.919
- log2FoldChange LINC00892 (gene LINC00892): 1.448
- log2FoldChange LINC00901 (gene LINC00901): 2.0689
- log2FoldChange LINC00903 (gene LINC00903): 1.858
- log2FoldChange LINC00943 (gene LINC00943): 1.485
- log2FoldChange LINC00992 (gene LINC00992): 1.834
- log2FoldChange (gene LINC01337): -1.849
- log2FoldChange LINC01496 (gene LINC01496): 1.714
- log2FoldChange LINC01630 (gene LINC01630): 1.508
- log2FoldChange LINC01822 (gene LINC01822): 1.567
- log2FoldChange LINC02073 (gene LINC02073): 1.471
- log2FoldChange (gene LINC02137): -1.093
- log2FoldChange LINC02243 (gene LINC02243): 1.564
- log2FoldChange LINC02320 (gene LINC02320): 1.543
- log2FoldChange LINC02349 (gene LINC02349): 1.483
- log2FoldChange LINC02450 (gene LINC02450): 1.635
- log2FoldChange LINC02552 (gene LINC02552): 1.805
- log2FoldChange LINC02625 (gene LINC02625): 1.633
- log2FoldChange (gene LINC02757): -1.715
- log2FoldChange LINC02831 (gene LINC02831): 1.506
- log2FoldChange LNX1-AS1 (gene LNX1-AS1): 1.468
- log2FoldChange (gene LPL): -1.817
- log2FoldChange (gene LRRC26): -1.7868
- log2FoldChange MARVELD3 (gene MARVELD3): 1.752
- log2FoldChange MCHR1 (gene MCHR1): 1.5856
- log2FoldChange (gene MCM8): -1.112
- log2FoldChange MGP (gene MGP): 1.798
- log2FoldChange (gene MMS22L): -1.0936
- log2FoldChange (gene MND1): -1.879
- log2FoldChange MYH7 (gene MYH7): 1.782
- log2FoldChange NAT2 (gene NAT2): 2.867
- log2FoldChange NCAN (gene NCAN): 1.62
- log2FoldChange (gene NCAPD2): -1.822
- log2FoldChange (gene NEMP2): -1.111
- log2FoldChange (gene NEUROD4): -1.88
- log2FoldChange NHLRC4 (gene NHLRC4): 1.795
- log2FoldChange NMRK2 (gene NMRK2): 1.566
- log2FoldChange (gene NOSTRIN): -1.881
- log2FoldChange (gene NT5M): -1.088
- log2FoldChange (gene NUP210): -1.755
- log2FoldChange (gene PALM3): -1.6379
- log2FoldChange (gene PASK): -1.1089
- log2FoldChange PCP4L1 (gene PCP4L1): 2.139
- log2FoldChange (gene PHF19): -1.68
- log2FoldChange PLA2G5 (gene PLA2G5): 2.135
- log2FoldChange PLAAT4 (gene PLAAT4): 1.529
- log2FoldChange (gene PMAIP1): -1.131
- log2FoldChange (gene POLQ): -1.824
- log2FoldChange PPP1R1C (gene PPP1R1C): 1.557
- log2FoldChange PROK2 (gene PROK2): 1.695
- log2FoldChange (gene PRR11): -1.758
- log2FoldChange (gene PSMC3IP): -1.597
- log2FoldChange PTGDS (gene PTGDS): 2.458
- log2FoldChange RAB7B (gene RAB7B): 1.47
- log2FoldChange (gene RACGAP1): -1.841
- log2FoldChange (gene RAD51): -1.643
- log2FoldChange (gene RADIL): -1.781
- log2FoldChange (gene RBBP8): -1.095
- log2FoldChange (gene RDM1): -1.73
- log2FoldChange (gene REXO5): -1.094
- log2FoldChange (gene RHBDL3): -1.639
- log2FoldChange RNASE6 (gene RNASE6): 1.784
- log2FoldChange (gene RPA3): -1.063
- log2FoldChange RSPH1 (gene RSPH1): 1.529
- log2FoldChange (gene RTKN2): -1.715
